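Exposure lasted 48 hours, with cells grown in 96-well plates and compounds tested at five concentrations. GI50: concentration for 50% inhibition of growth.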 Active and inactive are the calls of the source. Rule as the data show it: active = GI50 up to about 1.1 µM and inactive = higher.
Assays:
Assay in all cases: inhibition of tumour cell growth, NCI panel, 48 h
[1] = tested on: BT-549
[2] = tested on: MDA-MB-231
[3] = tested on: MDA-N
[4] = tested on: NCI/ADR-RES
[5] = tested on: LOX IMVI
[6] = tested on: PC-3
[7] = tested on: DLD-1
[8] = tested on: A498

Measured: GI50

CCOC(=O)C(NC(C)=O)(Nc1ccc(F)cc1)C(F)(F)F (stereo not drawn)
inactive: [1] > 100 µM | [2] > 100 µM | [3] 4.75 µM | [4] 8.13 µM | [5] > 100 µM | [6] > 100 µM

CC(C)(C)C1(c2ccc(C3(c4ccccc4)Oc4ccccc4S3)[nH]2)Oc2ccccc2S1 (stereo not drawn)
inactive: [7] > 100 µM | [5] > 100 µM

Cn1cnc(/C=C/C#N)c1
inactive: [8] > 100 µM | [1] > 100 µM | [2] > 100 µM | [3] > 100 µM | [4] > 100 µM | [6] > 100 µM

COc1cccc(NC(=O)N/C(=C/c2ccc(N(CCC#N)CCC#N)cc2)NC(=O)c2cc([N+](=O)[O-])ccc2Cl)c1
inactive: [7] 89.5 µM | [5] 71.4 µM

COc1cc2c(cc1OC)C1Cc3sccc3CN1CC2 (stereo not drawn)
inactive: [7] > 100 µM | [5] > 100 µM

O=c1c(Cc2ccc(Cc3c(O)oc4ccccc4c3=O)cc2)c(O)oc2ccccc12
inactive: [8] > 100 µM | [1] > 100 µM | [2] > 100 µM | [3] > 100 µM | [4] > 100 µM | [5] > 100 µM | [6] > 100 µM

CCOC(=O)/C(=N/Nc1ccc(C)cc1)N1C(=S)N(C)N=C(C)C=C1S
inactive: [1] 23.1 µM | [2] 32.7 µM | [4] > 100 µM
